Literature values as cited in patent US20070155727A1, “Amide inhibitors of leukotriene A4 hydrolase” (Schering Aktiengessellschaft, priority 2005, published 2007).

How the values were obtained:
BLT1 = conditions: human BLT1 and its mouse, rat and guinea pig orthologues
LTB4 receptor = conditions: read-out: Kd, additional lower affinity LTB4 receptors; neutrophils
colitis = conditions: eight weeks of treatment, cotton top tamarins
LTA4-h [1] = biological target: T1, LTA4-h (Rattus norvegicus, UniProt P30349); conditions: oral administration, rat peritoneum in vivo
T1 construct: and in rat peritoneum in vivo; host or cells: rat peritoneum in vivo
T1 sequence (P30349 1-611): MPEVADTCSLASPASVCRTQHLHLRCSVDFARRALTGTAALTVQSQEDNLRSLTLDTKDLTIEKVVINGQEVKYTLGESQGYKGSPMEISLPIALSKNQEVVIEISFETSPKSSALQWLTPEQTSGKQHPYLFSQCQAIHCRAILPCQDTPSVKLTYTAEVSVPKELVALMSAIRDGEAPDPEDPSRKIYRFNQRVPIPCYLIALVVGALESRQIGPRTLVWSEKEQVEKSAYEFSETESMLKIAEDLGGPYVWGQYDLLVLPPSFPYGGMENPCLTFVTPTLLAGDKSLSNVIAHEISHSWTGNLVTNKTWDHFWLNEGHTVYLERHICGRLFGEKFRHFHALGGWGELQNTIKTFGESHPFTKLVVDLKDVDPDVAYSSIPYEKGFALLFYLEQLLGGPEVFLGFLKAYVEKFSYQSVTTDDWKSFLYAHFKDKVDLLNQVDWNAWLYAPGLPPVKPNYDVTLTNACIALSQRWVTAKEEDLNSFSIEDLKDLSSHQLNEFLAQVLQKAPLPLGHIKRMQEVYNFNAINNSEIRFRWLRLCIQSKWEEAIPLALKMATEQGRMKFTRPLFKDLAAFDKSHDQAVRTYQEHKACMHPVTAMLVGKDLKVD

LTA4-h [2] = biological target: T2, LTA4-h (Mus musculus, UniProt P24527); conditions: oral administration, mouse blood ex vivo
T2 construct: host or cells: mouse blood ex vivo after oral dosing
T2 sequence (P24527 1-611): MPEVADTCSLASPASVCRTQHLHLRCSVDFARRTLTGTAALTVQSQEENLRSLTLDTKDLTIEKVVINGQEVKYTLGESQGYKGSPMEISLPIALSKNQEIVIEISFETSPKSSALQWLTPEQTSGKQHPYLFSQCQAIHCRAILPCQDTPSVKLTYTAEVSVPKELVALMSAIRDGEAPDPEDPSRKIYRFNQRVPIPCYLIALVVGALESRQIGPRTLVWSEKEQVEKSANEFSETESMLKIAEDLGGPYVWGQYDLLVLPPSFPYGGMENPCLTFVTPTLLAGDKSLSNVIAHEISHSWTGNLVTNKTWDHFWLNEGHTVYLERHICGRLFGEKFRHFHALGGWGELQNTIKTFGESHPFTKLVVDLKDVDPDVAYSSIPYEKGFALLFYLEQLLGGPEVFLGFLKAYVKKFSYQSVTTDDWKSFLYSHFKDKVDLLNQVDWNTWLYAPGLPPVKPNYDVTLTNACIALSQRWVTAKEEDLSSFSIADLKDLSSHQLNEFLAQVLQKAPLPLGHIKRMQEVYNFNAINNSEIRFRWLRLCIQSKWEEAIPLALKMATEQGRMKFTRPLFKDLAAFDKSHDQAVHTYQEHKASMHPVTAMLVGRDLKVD

| Compound | Kd (BLT1) | Kd (LTB4 receptor) | colitis symptoms (colitis) | inhibition of ionophore-induced LTB4 production (LTA4-h [1]) | inhibition of ionophore-induced LTB4 production (LTA4-h [2]) |
| --- | --- | --- | --- | --- | --- |
| CCCCC/C=C\C[C@@H](O)/C=C/C=C/C=C\[C@@H](O)CCCC(=O)O [LTB4, Leukotriene B4] | 100 to 700 pM | > 60000 pM |  |  |  |
| CN(CCCOc1ccc(Cc2ccccc2)cc1)CCC(=O)O.Cl [SC57461] |  |  | significantly improved colitis symptoms | caused inhibition of ionophore-induced LTB4 production | caused inhibition of ionophore-induced LTB4 production |
